Laboratory results reported in publication PMC4286469 (Cancer research, 2014).
Where a SMILES comes first, the peptide text is derived from it. The star is where a group is joined. Cbz = O=C(OCc1ccccc1)*; CH2F = FC*

What was measured:
[1] = system: SK-Mel5 cells; format: cell-based, human
[2] = system: non-resectable melanoma tumors driven by BRAF^V600E; details: patients; ref [1]–[5]; cited from earlier work
[3] = system: B16F0 tumors; test: B16F0 tumors in syngeneic immunocompetent C57Bl/6 mice; format: in vivo
[4] = system: SK-Mel5 xenografts; test: Marker analysis of SK-Mel5 xenograft tumors; format: in vivo, BALB/C nu/Foxn1 athymic nude mice; details: for p53 induction/activation in tumors (Western blot): (−)-Nutlin-3 200mg/kg
[5] = in vivo; details: C57Bl6, mouse, po, 30 mg/kg
[6] = system: B16F0 tumors; test: B16F0 tumors in immunodeficient NSG mice; format: in vivo; details: Fig. 4I
[7] = system: SK-Mel5 melanoma cells; test: Viability/cytotoxicity of SK-Mel5 melanoma cells; format: cell-based, human; details: for viability of melanoma cells under continuous exposure: p53^WT SK-Mel5, (−)-Nutlin-3 10µM, MLN8237 1µM, 7 days, Fig. 1D, E
[8] = system: patient-derived metastatic melanoma tumors; details: independent of BRAF and NRAS mutational status; ref [7]; cited from earlier work
[9] = system: p53; test: p53 and p53 target levels in cultured p53^WT melanoma cells; format: cell-based, human; details: for accumulation of p53 and its transcriptional targets: p53^WT cells (SK-Mel5 and Hs294T), (−)-Nutlin-3 10µM, MLN8237 1µM, 5 days
[10] = mouse, in vivo, po, 30 mg/kg
[11] = system: p53; test: p53 level and activity in p53^MUT SK-Mel28 cells; format: cell-based, human
[12] = Plasma and tumor pharmacokinetics in B16F0 melanoma-bearing C57Bl6 mice; details: 200 mg/kg oral
[13] = system: cells with p53 knockout; test: Viability of cells with p53 knockout; format: cell-based; details: Fig. S2A

COC(=O)C[C@H](NC(=O)[C@H](C)NC(=O)[C@@H](NC(=O)OCc1ccccc1)C(C)C)C(=O)CF [pan-caspase inhibitor, Z-VAD-FMK] (Cbz-Val-Ala-Asp(OMe)-CH2F)
effect of pan-caspase inhibitor on cytotoxic response to p53 activation [1]: did not interfere

CC(C)(C)c1nc(-c2cccc(NS(=O)(=O)c3c(F)cccc3F)c2F)c(-c2ccnc(N)n2)s1 [dabrafenib]
median progression-free survival [2]: 6 months

COc1cc(Nc2ncc3c(n2)-c2ccc(Cl)cc2C(c2c(F)cccc2OC)=NC3)ccc1C(=O)O [MLN8237]
tumor growth ([3]; (−)-Nutlin-3 200mg/kg twice daily, MLN8237 30mg/kg once a day, oral gavage): partially inhibited tumor growth | CCL5 levels in melanoma cells and fibroblasts sorted from tumors (qRT-PCR) ([3]; Fig. 5B): increased | tumor necrosis (H&E) ([3]; immunocompetent mice, Fig. 4G): striking absence of necrosis | p53 induction/activation in tumors (Western blot) ([4]; MLN8237 30mg/kg daily): moderate induction of p53 | AURKA activity (auto-phosphorylation) in tumor lysates ([4]; MLN8237 30mg/kg daily): inhibited AURKA activity | tumor senescence (SA-β-Gal activity) and proliferation markers ([4]; MLN8237 30mg/kg daily): inhibition of cancer cell proliferation and induction of senescence | AUC(0-t) [5]: 42.7 µg·h/mL | clearance of necrotic areas in senescent tumors [6]: abrogated | viability of melanoma cells under continuous exposure [7]: mostly cytostatic response | patient-derived metastatic melanoma tumors with markedly slowed growth [8]: > 75% | accumulation of p53 and its transcriptional targets [9]: induced p53 accumulation | overall median MLN8237 AUC0–24hr, tumor tissue [10]: 37.4 µg·h/g

(−)-Nutlin-3
level and activity of p53 [11]: unaffected | p53 levels in tumors ([3]; IF staining, Fig. 4D): not strongly induced | p53 induction/activation in tumors (Western blot) ([4]; MLN8237 30mg/kg daily): modest | tumor cells showing induction of apoptosis marker AIF ([4]; Fig. 3C): no more than 15% | tumor cells with elevated/strong p53 staining ([4]; Fig. S3, untreated control tumors 3–6%): 11% | cytotoxicity in senescent and non-senescent cells ([7]; SK-Mel5, senescent (1 µM MLN8237 pre-treated) and non-senescent (vehicle pre-treated) cells, Fig. 1A, B): dose-dependent cytotoxicity | viability of melanoma cells under continuous exposure [7]: killed p53^WT melanoma cells | median (−)-Nutlin-3 AUC0–24hr, plasma ([12]; plasma): 292.7 µg·h/mL | median (−)-Nutlin-3 AUC0–24hr, tumor tissue ([12]; tumor tissue): 455.6 µg·h/mL | cells showing strong p53 induction in vitro ([9]; in vitro, Fig. S2B): 100% | accumulation of p53 and its transcriptional targets [9]: induced accumulation of p53 and its transcriptional targets p21, PUMA, BAX and MDM2 | mitochondrial membrane potential (JC-1) ([1]; (−)-Nutlin-3 10µM, MLN8237 1µM, 5 days): decrease in mitochondrial membrane potential | cleavage of caspase 3 ([1]; Fig. S2C): not detected | Apoptosis Inducing Factor (AIF) activation and translocation ([1]; SK-Mel5, IF staining): induced activation, mitochondrial release and nuclear translocation | apoptosis (Annexin V-FITC and PI staining) ([1]; p53^WT melanoma cells, 10µM, 5 days): induced apoptosis | viability of cells with p53 knockout [13]: did not affect viability
